Measured values as given in ChEMBL document CHEMBL1821599 (J Med Chem, 2011).
The source made the active and inactive calls. No cut-off for these calls is given here. Where a SMILES comes first, the peptide text is derived from it. Bridges are numbered along the chain shown (N, C = ends). [ ]: non-standard residue; d: D form.

What was measured:
[1] = molecular target: Somatostatin receptor type 2 (Homo sapiens, UniProt P30874); test: Displacement of 125I-[LTT]-SRIF-28 from human sst2 receptor in CCL39 cells after 2 hrs by autoradiography; format: cell-based
Chain of Somatostatin receptor type 2 (P30874 whole entry): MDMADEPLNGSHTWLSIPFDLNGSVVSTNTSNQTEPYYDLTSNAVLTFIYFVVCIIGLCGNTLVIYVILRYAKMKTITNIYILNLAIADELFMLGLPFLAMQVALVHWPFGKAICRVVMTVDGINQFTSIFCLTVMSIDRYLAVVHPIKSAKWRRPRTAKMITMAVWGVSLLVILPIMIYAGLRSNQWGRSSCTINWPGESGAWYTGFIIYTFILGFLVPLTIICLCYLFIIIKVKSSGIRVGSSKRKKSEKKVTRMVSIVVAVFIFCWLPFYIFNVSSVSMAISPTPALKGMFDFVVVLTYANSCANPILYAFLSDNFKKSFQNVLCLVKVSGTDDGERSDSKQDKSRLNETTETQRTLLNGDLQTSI

[2] = molecular target: Somatostatin receptor type 5 (Homo sapiens, UniProt P35346); test: Displacement of 125I-[LTT]-SRIF-28 from human sst5 receptor in HEK293 cells after 2 hrs by autoradiography; format: cell-based
Chain of Somatostatin receptor type 5 (P35346 whole entry): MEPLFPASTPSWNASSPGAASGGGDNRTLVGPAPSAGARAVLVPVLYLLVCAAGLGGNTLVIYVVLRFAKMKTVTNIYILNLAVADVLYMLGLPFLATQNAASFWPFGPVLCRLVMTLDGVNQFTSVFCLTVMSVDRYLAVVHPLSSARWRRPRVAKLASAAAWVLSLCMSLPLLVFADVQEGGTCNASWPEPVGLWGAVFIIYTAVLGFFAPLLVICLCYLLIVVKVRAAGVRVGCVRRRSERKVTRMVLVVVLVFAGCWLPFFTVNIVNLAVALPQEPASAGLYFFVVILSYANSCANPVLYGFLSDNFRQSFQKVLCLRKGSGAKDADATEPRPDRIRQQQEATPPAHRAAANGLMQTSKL

[3] = molecular target: T1, Somatostatin receptor type 3 (Homo sapiens, UniProt P32745); test: Agonist activity at human sst3 receptor expressed in CCL39 cells after 5 hrs by luciferase reporter gene assay; format: functional, cell-based
T1 sequence (P32745 whole entry): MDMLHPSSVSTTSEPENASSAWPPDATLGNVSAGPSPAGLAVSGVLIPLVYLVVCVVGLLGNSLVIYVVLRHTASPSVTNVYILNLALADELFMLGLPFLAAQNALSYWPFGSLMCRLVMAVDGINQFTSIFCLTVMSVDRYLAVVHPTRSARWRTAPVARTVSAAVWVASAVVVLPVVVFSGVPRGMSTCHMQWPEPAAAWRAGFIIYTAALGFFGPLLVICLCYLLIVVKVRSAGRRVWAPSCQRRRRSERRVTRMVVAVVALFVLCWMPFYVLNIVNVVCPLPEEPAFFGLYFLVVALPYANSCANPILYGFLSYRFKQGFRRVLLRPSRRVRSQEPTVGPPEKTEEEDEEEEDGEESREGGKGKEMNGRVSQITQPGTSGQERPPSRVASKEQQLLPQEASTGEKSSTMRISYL

[4] = molecular target: T1, Somatostatin receptor type 3; test: Induction of sst3 receptor internalization in human HEK cells after 30 mins by immunofluorescence microscopy; format: cell-based; conditions: HEK293
[5] = molecular target: Somatostatin receptor type 1 (Homo sapiens, UniProt P30872); test: Displacement of 125I-[LTT]-SRIF-28 from human sst1 receptor in CHO cells after 2 hrs by autoradiography; format: cell-based
Chain of Somatostatin receptor type 1 (P30872 whole entry): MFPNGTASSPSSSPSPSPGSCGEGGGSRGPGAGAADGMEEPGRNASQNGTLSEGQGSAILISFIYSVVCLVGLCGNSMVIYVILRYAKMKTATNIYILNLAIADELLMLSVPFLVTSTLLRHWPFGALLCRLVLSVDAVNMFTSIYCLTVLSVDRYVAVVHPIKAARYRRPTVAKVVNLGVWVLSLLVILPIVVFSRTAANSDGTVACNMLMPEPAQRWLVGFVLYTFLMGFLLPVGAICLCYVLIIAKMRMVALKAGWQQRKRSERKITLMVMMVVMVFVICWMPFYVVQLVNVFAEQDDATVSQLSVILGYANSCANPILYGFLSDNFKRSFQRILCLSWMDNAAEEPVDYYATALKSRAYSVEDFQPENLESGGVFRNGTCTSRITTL

[6] = molecular target: Somatostatin receptor type 4 (Homo sapiens, UniProt P31391); test: Displacement of 125I-[LTT]-SRIF-28 from human sst4 receptor in CCL39 cells after 2 hrs by autoradiography; format: cell-based
Chain of Somatostatin receptor type 4 (P31391 whole entry): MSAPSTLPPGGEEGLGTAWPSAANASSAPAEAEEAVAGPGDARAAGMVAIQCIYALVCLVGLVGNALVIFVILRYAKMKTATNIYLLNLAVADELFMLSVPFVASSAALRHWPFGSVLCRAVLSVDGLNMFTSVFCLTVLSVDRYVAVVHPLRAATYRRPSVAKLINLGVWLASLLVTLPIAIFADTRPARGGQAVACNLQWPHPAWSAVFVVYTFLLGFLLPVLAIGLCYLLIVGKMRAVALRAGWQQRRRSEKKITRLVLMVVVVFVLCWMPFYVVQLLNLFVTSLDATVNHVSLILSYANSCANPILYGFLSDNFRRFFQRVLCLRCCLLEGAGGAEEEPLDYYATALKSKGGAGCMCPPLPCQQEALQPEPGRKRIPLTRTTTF

[7] = molecular target: T1, Somatostatin receptor type 3; test: Displacement of 125I-[LTT]-SRIF-28 from human sst3 receptor in CCL39 cells after 2 hrs by autoradiography; format: cell-based
[8] = molecular target: T1, Somatostatin receptor type 3; test: Partial agonist activity at human sst3 receptor expressed in CCL39 cells after 5 hrs by luciferase reporter gene assay; format: functional, cell-based
[9] = molecular target: T1, Somatostatin receptor type 3; test: Partial antagonist activity at human sst3 receptor expressed in CCL39 cells assessed as inhibition of somatostatin-induced luciferase reporter gene expression at 10 uM after 5 hrs; format: functional, cell-based
[10] = molecular target: T1, Somatostatin receptor type 3; test: Induction of sst3 receptor internalization in human HEK cells at 10 uM after 30 mins by immunofluorescence microscopy; format: cell-based; conditions: HEK293
[11] = molecular target: T1, Somatostatin receptor type 3; test: Inhibition of somatostatin-induced sst3 receptor internalization in human HEK cells at 10 uM after 30 mins by immunofluorescence microscopy; format: cell-based; conditions: HEK293

| IC50 [1] | IC50 [2] | EC50 [3] | Activity [4] | IC50 [5] | IC50 [6] | IC50 [7] | EC50 [8] | Activity [9] | Activity [10] | Activity [11] | Structure (SMILES) |
| --- | --- | --- | --- | --- | --- | --- | --- | --- | --- | --- | --- |
| 106 nM | > 1000 nM | – | Active | > 1000 nM | > 1000 nM | 15 nM | 41 nM | Active | – | – | C[C@H](N)C(=O)NCC(=O)N[C@H]1CSSC[C@@H](C(=O)O)NC(=O)[C@H](CO)NC(=O)[C@H]([C@@H](C)O)NC(=O)[C@H](Cc2ccccc2)NC(=O)[C@H]([C@@H](C)O)NC(=O)[C@H](CCCCN)NC(=O)[C@@H](Cc2cn(Cc3ccccc3)cn2)NC(=O)[C@H](Cc2ccccc2)NC(=O)[C@H](Cc2ccccc2)NC(=O)[C@H](CC(N)=O)NC(=O)[C@H](CCCCN)NC1=O |
| > 1000 nM | > 1000 nM | – | inactive | > 1000 nM | 590 nM | 75 nM | 299 nM | Active | inactive | Active | C[C@@H](O)[C@@H]1NC(=O)[C@H](CCCCN)NC(=O)[C@@H](Cc2cn(Cc3ccccc3)cn2)NC(=O)[C@H](Cc2ccccc2)NC(=O)[C@H](Cc2ccccc2)NC(=O)[C@@H](N)CSSC[C@@H](C(=O)O)NC(=O)[C@H](Cc2ccccc2)NC1=O |
| 173 nM | 6 nM | 0.53 nM | Active | 607 nM | 41 nM | 6.7 nM | – | – | – | – | C[C@@H](O)[C@@H]1NC(=O)[C@H](CCCCN)NC(=O)[C@@H](Cc2ccc3ccccc3c2)NC(=O)[C@H](Cc2ccccc2)NC(=O)[C@H](Cc2ccccc2)NC(=O)[C@@H](N)CSSC[C@@H](C(=O)O)NC(=O)[C@H](Cc2ccccc2)NC1=O |
| > 1000 nM | > 1000 nM | – | Active | > 1000 nM | > 1000 nM | 131 nM | 315 nM | Active | – | – | C[C@H](N)C(=O)NCC(=O)N[C@H]1CSSC[C@@H](C(=O)O)NC(=O)[C@H](CO)NC(=O)[C@H]([C@@H](C)O)NC(=O)[C@H](Cc2ccccc2)NC(=O)[C@H]([C@@H](C)O)NC(=O)[C@H](CCCCN)NC(=O)[C@H](Cc2cn(Cc3ccccc3)cn2)NC(=O)[C@H](Cc2ccccc2)NC(=O)[C@H](Cc2ccccc2)NC(=O)[C@H](CC(N)=O)NC(=O)[C@H](CCCCN)NC1=O |
| 4.1 nM | 41 nM | 0.87 nM | Active | 140 nM | 16 nM | 2 nM | – | – | – | – | C[C@H](N)C(=O)NCC(=O)N[C@H]1CSSC[C@@H](C(=O)O)NC(=O)[C@H](CO)NC(=O)[C@H]([C@@H](C)O)NC(=O)[C@H](Cc2ccccc2)NC(=O)[C@H]([C@@H](C)O)NC(=O)[C@H](CCCCN)NC(=O)[C@@H](Cc2ccc(O)cc2)NC(=O)[C@H](Cc2ccccc2)NC(=O)[C@H](Cc2ccccc2)NC(=O)[C@H](CC(N)=O)NC(=O)[C@H](CCCCN)NC1=O |
| 35 nM | 556 nM | 15.7 nM | Active | 138 nM | 25 nM | 13 nM | – | – | – | – | C[C@H](N)C(=O)NCC(=O)N[C@H]1CSSC[C@@H](C(=O)O)NC(=O)[C@H](CO)NC(=O)[C@H]([C@@H](C)O)NC(=O)[C@H](Cc2ccccc2)NC(=O)[C@H]([C@@H](C)O)NC(=O)[C@H](CCCCN)NC(=O)[C@H](Cc2ccc(O)cc2)NC(=O)[C@H](Cc2ccccc2)NC(=O)[C@H](Cc2ccccc2)NC(=O)[C@H](CC(N)=O)NC(=O)[C@H](CCCCN)NC1=O |
| > 1000 nM | > 1000 nM | – | inactive | > 1000 nM | > 1000 nM | 164 nM | 164 nM | Active | inactive | Active | C[C@@H](O)[C@@H]1NC(=O)[C@H](CCCCN)NC(=O)[C@H](Cc2cn(Cc3ccccc3)cn2)NC(=O)[C@H](Cc2ccccc2)NC(=O)[C@H](Cc2ccccc2)NC(=O)[C@@H](N)CSSC[C@@H](C(=O)O)NC(=O)[C@H](Cc2ccccc2)NC1=O |

More lines, now with the values behind:

| Structure (SMILES) | IC50 [1] | IC50 [2] | EC50 [3] | Activity [4] | IC50 [5] | IC50 [6] | IC50 [7] | EC50 [8] | Activity [9] | Activity [10] | Activity [11] |
| --- | --- | --- | --- | --- | --- | --- | --- | --- | --- | --- | --- |
| C[C@H](N)C(=O)NCC(=O)N[C@H]1CSSC[C@@H](C(=O)O)NC(=O)[C@H](CO)NC(=O)[C@H]([C@@H](C)O)NC(=O)[C@H](Cc2ccccc2)NC(=O)[C@H]([C@@H](C)O)NC(=O)[C@H](CCCCN)NC(=O)[C@H](Cc2ccc3ccccc3c2)NC(=O)[C@H](Cc2ccccc2)NC(=O)[C@H](Cc2ccccc2)NC(=O)[C@H](CC(N)=O)NC(=O)[C@H](CCCCN)NC1=O | 15 nM | 69 nM | 0.35 nM | Active | 2.7 nM | 12 nM | 1.5 nM | – | – | – | – |
| C[C@H](N)C(=O)NCC(=O)N[C@H]1CSSC[C@@H](C(=O)O)NC(=O)[C@H](CO)NC(=O)[C@H]([C@@H](C)O)NC(=O)[C@H](Cc2ccccc2)NC(=O)[C@H]([C@@H](C)O)NC(=O)[C@H](CCCCN)NC(=O)[C@@H](Cc2ccc3ccccc3c2)NC(=O)[C@H](Cc2ccccc2)NC(=O)[C@H](Cc2ccccc2)NC(=O)[C@H](CC(N)=O)NC(=O)[C@H](CCCCN)NC1=O | 1.6 nM | 2.4 nM | 0.23 nM | Active | 4.1 nM | 12 nM | 1 nM | – | – | – | – |
| C[C@@H](O)[C@@H]1NC(=O)[C@H](CCCCN)NC(=O)[C@H](Cc2c[nH]c3ccccc23)NC(=O)[C@H](Cc2ccccc2)NC(=O)[C@H](Cc2ccccc2)NC(=O)[C@@H](N)CSSC[C@@H](C(=O)O)NC(=O)[C@H](Cc2ccccc2)NC1=O (H-CFFWKTFC-OH; disulfide 1-8) | – | 16 nM | – | Active | – | – | – | 4.7 nM | – | – | – |
| C[C@@H](O)[C@@H]1NC(=O)[C@H](CCCCN)NC(=O)[C@@H](Cc2c[nH]c3ccccc23)NC(=O)[C@H](Cc2ccccc2)NC(=O)[C@H](Cc2ccccc2)NC(=O)[C@@H](N)CSSC[C@@H](C(=O)O)NC(=O)[C@H](Cc2ccccc2)NC1=O (H-CFF[dW]KTFC-OH; disulfide 1-8) | – | 2.6 nM | 3.33 nM | Active | – | – | – | – | – | – | – |
